Counter-ions that a name gives are not always drawn.
Biological target: T1, Human RET kinase cytoplasmic domain (Homo sapiens, UniProt P07949)
T1 construct: made in house
T1 sequence (P07949 658-1114): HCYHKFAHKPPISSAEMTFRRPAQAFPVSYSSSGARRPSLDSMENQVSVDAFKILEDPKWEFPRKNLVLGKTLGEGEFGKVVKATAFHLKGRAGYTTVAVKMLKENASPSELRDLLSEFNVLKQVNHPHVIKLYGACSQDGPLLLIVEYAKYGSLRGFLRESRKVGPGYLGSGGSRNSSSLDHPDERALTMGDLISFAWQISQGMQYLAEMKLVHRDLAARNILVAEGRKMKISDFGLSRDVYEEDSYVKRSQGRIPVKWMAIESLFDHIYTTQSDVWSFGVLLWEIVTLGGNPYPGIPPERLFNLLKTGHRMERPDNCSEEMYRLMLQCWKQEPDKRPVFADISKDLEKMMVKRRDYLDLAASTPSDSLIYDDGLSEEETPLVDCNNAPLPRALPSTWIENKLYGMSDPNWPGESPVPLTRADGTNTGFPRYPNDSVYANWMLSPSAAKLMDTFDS
Test: RET kinase enzymatic assay
Type: biochemical
Protocol: GST-RET was purified using glutathione sepharose chromatography. The RET kinase enzymatic assay was performed in a total volume of 10 uL with increasing concentrations of RET kinase inhibitor as a singlet in a 384 well format as follows: RET inhibitor compound plates are prepared by adding 100 nL of RET inhibitor at different concentrations to a 384-well plate. 5 μL/well of a 2× enzyme mix (50 mM HEPES (4-(2-hydroxyethyl)-1-piperazineethanesulfonic acid); 1 mM CHAPS (3-[(3-cholamidopropyl)dimethylammonio]-1-propanesulfonate); 0.1 mg/mL BSA (bovine serum albumin); 1 mM DTT (dithiothreitol); 0.2 nM RET kinase) was added to the 384-well plate and incubated for 30 minutes at 23° C. 5 µL/well of a 2× substrate mix (50 mM HEPES; 1 mM CHAPS; 0.1 mg/mL BSA; 20 μM adenosine triphosphate; 20 mM MgCl2 and 1 μM biotinylated peptide substrate) was added and incubated for 1 hour at 23° C. […] IC50s were fitted using GraphPad Prism to a sigmoidal dose response.

| IC50 | SMILES |
| --- | --- |
| < 100 nM | CCOc1cc(-c2ccc(NC(=O)Nc3ccc(OC(C)C)c(C(F)(F)F)c3)c(C)n2)c[nH]c1=O [Example 5, 1-(5′-Ethoxy-6-methyl-6′-oxo-1′,6′-dihydro-[2,3′-bipyridin]-5-yl)-3-(4-isopropoxy-3-(trifluoromethyl)phenyl)urea] |
| < 100 nM | CC1(Oc2ccc(NC(=O)Nc3ccc(-c4c[nH]c(=O)c5ccoc45)cc3F)cc2C(F)(F)F)COC1 [Example 19, 1-(2-Fluoro-4-(4-oxo-4,5-dihydrofuro[3,2-c]pyridin-7-yl)phenyl)-3-(4-((3-methyloxetan-3-yl)oxy)-3-(trifluoromethyl)phenyl)urea] |
| < 100 nM | CCOc1cc(=O)[nH]cc1-c1ncc(NC(=O)Nc2cc(-n3cnc(C)c3)cc(C(F)(F)F)c2)c(C)n1 [Example 52, 1-(2-(4-Ethoxy-6-oxo-1,6-dihydropyridin-3-yl)-4-methylpyrimidin-5-yl)-3-(3-(4-methyl-1H-imidazol-1-yl)-5-(trifluoromethyl)phenyl)urea] |
| < 100 nM | CCOc1cc(-c2ccc(NC(=O)Nc3ccc(CC(F)(F)CO)c(C(F)(F)F)c3)c(F)c2)c[nH]c1=O [Example 125] |
| < 100 nM | CCOc1cc(Oc2ccc(NC(=O)Nc3cc(C(F)(F)F)ccc3F)cc2)c[nH]c1=O [Example 86] |
| < 100 nM | CCOc1cc(-c2ccc(NC(=O)Nc3ccc(OC(C)(C)CO)c(C(F)(F)F)c3)c(F)c2)c[nH]c1=O [Example 118] |
| < 100 nM | CCOc1cc(-c2ccc(NC(=O)Nc3ccc(F)c(C(F)(F)F)c3)c(F)c2)c[nH]c1=O [Example 156] |
| < 100 nM | CCOc1cc(-c2ccc(NC(=O)Nc3ccc(OC4(C)CCN(C)C4)c(C(F)(F)F)c3)c(F)c2)c[nH]c1=O (stereo not drawn) [Example 144] |
| < 100 nM | CCN1CCN(Cc2cc(F)c(NC(=O)Nc3cnc(-c4c[nH]c(=O)cc4OCCOC)nc3C)cc2C(F)(F)F)CC1 [Example 182, 1-(4-((4-Ethylpiperazin-1-yl)methyl)-2-fluoro-5-(trifluoromethyl)phenyl)-3-(2-(4-(2-methoxyethoxy)-6-oxo-1,6-dihydropyridin-3-yl)-4-methylpyrimidin-5-yl)urea] |
| < 100 nM | CCOc1cc(-c2ccc(NC(=O)Nc3ccc(OC(C)(C)C)c(C(F)(F)F)c3)cc2)c[nH]c1=O [Example 79] |
| < 100 nM | CCOc1cc(-c2ncc(NC(=O)Nc3ccc(CN(C)C)c(C(F)(F)F)c3)c(C)n2)c[nH]c1=O [Example 58, 1-(4-((Dimethylamino)methyl)-3-(trifluoromethyl)phenyl)-3-(2-(5-ethoxy-6-oxo-1,6-dihydropyridin-3-yl)-4-methylpyrimidin-5-yl)urea] |
| < 100 nM | CC1(Oc2ccc(NC(=O)Nc3ccc(-c4c[nH]c(=O)c(O)c4)cc3F)cc2C(F)(F)F)COC1 [Example 94] |
| < 100 nM | CCOc1cc(-c2ccc(NC(=O)Nc3ccc(C(C)(C)C#N)c(C(F)(F)F)c3)c(F)c2)c[nH]c1=O [Example 135] |
| < 100 nM | COCCOc1cc(-c2ncc(NC(=O)Nc3cc(C(F)(F)F)c(CN4CCN(C)CC4)cc3F)c(C)n2)c[nH]c1=O [Example 184, 1-(2-Fluoro-4-((4-methylpiperazin-1-yl)methyl)-5-(trifluoromethyl)-phenyl)-3-(2-(5-(2-methoxyethoxy)-6-oxo-1,6-dihydropyridin-3-yl)-4-methylpyrimidin-5-yl)urea trihydrochloride] |
| < 100 nM | CCOc1cc(-c2ncc(NC(=O)Nc3ccc(CN(C)C)c(C(F)(F)F)c3)cn2)c[nH]c1=O [Example 179, 1-(4-((Dimethylamino)methyl)-3-(trifluoromethyl)phenyl)-3-(2-(5-ethoxy-6-oxo-1,6-dihydropyridin-3-yl)pyrimidin-5-yl)urea] |
| < 100 nM | CCOc1cc(-c2ccc(NC(=O)Nc3cnc(OC4(C)COC4)c(C(F)(F)F)c3)c(F)c2)c[nH]c1=O [Example 148] |
| < 100 nM | CCOc1cc(-c2ccc(NC(=O)Nc3ccc(Cl)c(Cl)c3)c(F)c2)c[nH]c1=O [Example 170] |
| < 100 nM | CCOc1cc(-c2ccc(NC(=O)Nc3ccc(OC4(C)CCOC4)c(C(F)(F)F)c3)c(F)c2)c[nH]c1=O (stereo not drawn) [Example 167] |
| < 100 nM | CCOc1cc(-c2ncc(NC(=O)Nc3ccc(Cl)c(C(F)(F)F)c3)c(C)n2)c[nH]c1=O [Example 60, 1-(4-Chloro-3-(trifluoromethyl)phenyl)-3-(2-(5-ethoxy-6-oxo-1,6-dihydropyridin-3-yl)-4-methylpyrimidin-5-yl)urea] |
| < 100 nM | CCOc1cc(-c2ccc(NC(=O)Nc3cc(C(F)(F)F)ccc3F)c(F)c2)c[nH]c1=O [Example 78] |

| IC50 | SMILES |
| --- | --- |
| < 100 nM | CC(C)(C)c1cc(NC(=O)Nc2ccc(-c3ccc(=O)[nH]c3)cc2)n(-c2ccccc2)n1 [Example 68, 1-(3-(tert-Butyl)-1-phenyl-1H-pyrazol-5-yl)-3-(4-(6-oxo-1,6-dihydropyridin-3-yl)phenyl)urea] |
| < 100 nM | CC1(Oc2ccc(NC(=O)Nc3ccc(-c4ccc(=O)[nH]c4)cc3)cc2C(F)F)COC1 [Example 169] |
| < 100 nM | CCOc1cc(-c2ccc(NC(=O)Nc3ccc(OC(C)(C)CF)c(C(F)(F)F)c3)c(F)c2)c[nH]c1=O [Example 139] |
| < 100 nM | CCOc1cc(-c2ccc(NC(=O)Nc3ccc(CN(C)C)c(C(F)(F)F)c3)c(F)c2)c[nH]c1=O [Example 76] |
| < 100 nM | CC1(Oc2ccc(NC(=O)Nc3ccc(-c4c[nH]c(=O)c(F)c4)cc3F)cc2C(F)(F)F)COC1 [Example 36, 1-(2-Fluoro-4-(5-fluoro-6-oxo-1,6-dihydropyridin-3-yl)phenyl)-3-(4-((3-methyloxetan-3-yl)oxy)-3-(trifluoromethyl)phenyl)urea] |
| < 100 nM | CC(C)Oc1ccc(NC(=O)Nc2ccc(-c3c[nH]c(=O)c(OCCCF)c3)cc2F)cc1C(F)(F)F [Example 121] |
| < 100 nM | CCOc1cc(-c2ccc(NC(=O)Nc3ccc(CO)c(C(F)(F)F)c3)c(F)c2)c[nH]c1=O [Example 132] |
| < 100 nM | CCOc1cc(=O)[nH]cc1-c1ccc(NC(=O)Nc2ccc(OC3(C)COC3)c(C(F)F)c2)c(F)c1 [Example 124] |
| < 100 nM | CCOc1cc(-c2ccc(NC(=O)Nc3ccc(C(C)O)c(C(F)(F)F)c3)c(F)c2)c[nH]c1=O (stereo not drawn) [Example 116] |
| < 100 nM | CCOc1cc(-c2ncc(NC(=O)Nc3ccc(C(C)(C)CN(C)C)c(C(F)(F)F)c3)c(C)n2)c[nH]c1=O [Example 73, 1-(4-(1-(Dimethylamino)-2-methylpropan-2-yl)-3-(trifluoromethyl)phenyl)-3-(2-(5-ethoxy-6-oxo-1,6-dihydropyridin-3-yl)-4-methylpyrimidin-5-yl)urea dihydrochloride] |
| < 100 nM | CCOc1cc(-c2ccc(NC(=O)Nc3ccc(OC4(C)CCN(C(C)C)C4)c(C(F)(F)F)c3)c(F)c2)c[nH]c1=O (stereo not drawn) [Example 85] |
| < 100 nM | CCOc1cc(-c2ccc(NC(=O)Nc3ccc(CN4CCN(CC)CC4)c(C(F)(F)F)c3)c(C(F)F)c2)c[nH]c1=O [Example 30, 1-(2-(Difluoromethyl)-4-(5-ethoxy-6-oxo-1,6-dihydropyridin-3-yl)phenyl)-3-(4-((4-ethylpiperazin-1-yl)methyl)-3-(trifluoromethyl)phenyl)urea] |
| < 100 nM | CCOc1cc(-c2ncc(NC(=O)Nc3cc(C(F)(F)F)c(CN(C)C)cc3F)cn2)c[nH]c1=O [Example 188, 1-(4-((Dimethylamino)methyl)-2-fluoro-5-(trifluoromethyl)phenyl)-3-(2-(5-ethoxy-6-oxo-1,6-dihydropyridin-3-yl)pyrimidin-5-yl)urea dihydrochloride] |
| < 100 nM | CCOc1cc(-c2ncc(NC(=O)Nc3ccc(C(C)(C)O)c(C(F)(F)F)c3)c(C)n2)c[nH]c1=O [Example 71, 1-(2-(5-Ethoxy-6-oxo-1,6-dihydropyridin-3-yl)-4-methylpyrimidin-5-yl)-3-(4-(2-hydroxypropan-2-yl)-3-(trifluoromethyl)phenyl)urea] |
| < 100 nM | CC1(Oc2ccc(NC(=O)Nc3ccc(-c4c[nH]c(=O)c(OC5CC5)c4)cc3F)cc2C(F)(F)F)COC1 [Example 20, 1-(4-(5-Cyclopropoxy-6-oxo-1,6-dihydropyridin-3-yl)-2-fluorophenyl)-3-(4-((3-methyloxetan-3-yl)oxy)-3-(trifluoromethyl)phenyl)urea] |
| < 100 nM | CCOc1cc(-c2ccc(NC(=O)Nc3ccc(OC4(CO)CC4)c(C(F)(F)F)c3)c(F)c2)c[nH]c1=O [Example 123] |
| < 100 nM | CCOc1cc(-c2ccc(NC(=O)Nc3ccc(Cl)c(C(F)(F)F)c3)c(F)c2)c[nH]c1=O [Example 152] |
| < 100 nM | CCOc1cc(-c2ncc(NC(=O)Nc3cc(-n4cnc(C)c4)cc(C(F)(F)F)c3)c(CC)n2)c[nH]c1=O [Example 56, 1-(2-(5-Ethoxy-6-oxo-1,6-dihydropyridin-3-yl)-4-ethylpyrimidin-5-yl)-3-(3-(4-methyl-1H-imidazol-1-yl)-5-(trifluoromethyl)phenyl)urea] |
| 100 to 500 nM | CCOc1ccc(NC(=O)Nc2ccc(-c3ccc(=O)n(CC)c3)cc2F)cc1C(F)(F)F [Example 113] |
